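Results reflect a 48-hour exposure of cells in 96-well plates to compound at five concentrations. At the GI50, growth is halved. Definition used: TGI = concentration required for complete inhibition of growth.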
Assays:
SNB-75 CNS = experiment: growth of human tumour cells (NCI), 48 h
SN12C renal = experiment: growth of human tumour cells (NCI), 48 h

Compound	GI50 (SNB-75 CNS) [µM]	GI50 (SN12C renal) [nM]	TGI (SN12C renal) [nM]
NC(=O)c1ncn(CC2(CO)CCC2)n1	21.6	–	–
C=C(C)[C@@H]1CC[C@]2(C(=O)OCCCC[P+](c3ccccc3)(c3ccccc3)c3ccccc3)CC[C@]3(C)[C@H](CC[C@@H]4[C@@]5(C)CC[C@H](OC(=O)C(Cl)Cl)C(C)(C)[C@@H]5CC[C@]43C)[C@@H]12	–	270	1580
